Results reported in ChEMBL document CHEMBL1152054, “Synthesis and evaluation of a -lactam-containing dipeptide analog as a protease inhibitor” (Bioorg Med Chem Lett, 1996).

Legend:
[1] = Compound was tested for inhibition of carboxypeptidase Y serine protease to produce one-half maximal enzyme activity.
[2] = Compound was tested for inhibition of elastase serine protease to produce one-half maximal enzyme activity.
Chymotrypsinogen B = Chymotrypsinogen B (Homo sapiens, UniProt P17538); test: Compound was tested for inhibition of alpha-chymotrypsin serine protease to produce one-half maximal enzyme activity.
Chymotrypsinogen B, sequence (P17538 34-164 limits assumed, other chains not shown): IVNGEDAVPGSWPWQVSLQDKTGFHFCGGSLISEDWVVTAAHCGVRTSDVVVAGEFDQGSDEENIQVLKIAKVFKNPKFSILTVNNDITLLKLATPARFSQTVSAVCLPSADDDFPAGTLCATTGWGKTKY
Chymotrypsinogen B, sequence (P17538 167-263 limits assumed, other chains not shown): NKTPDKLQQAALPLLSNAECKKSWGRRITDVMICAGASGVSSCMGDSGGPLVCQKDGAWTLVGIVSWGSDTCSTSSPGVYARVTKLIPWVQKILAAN

[3] = Compound was tested for inhibition of proteinase K serine protease to produce one-half maximal enzyme activity.

SMILES: COC(=O)CN1CC(Cc2ccccc2)(NC(=O)c2ccccc2)C1=O (centres undefined)
- Inhibition constant [1]: 0.3 mM
- Inhibition constant [2]: > 1.2 mM
- Inhibition constant (Chymotrypsinogen B): 0.3 mM
- Inhibition constant [3]: > 1.2 mM
